Measurements as given in US5843966A, “Piperidine derivatives” (Glaxo Group Limited, priority 1993, dated 1998).
Counter-ions that a name gives are not always drawn.

System: radiation-induced emesis in the ferret
Experiment: Inhibition of radiation-induced emesis in the ferret
Format: in vivo
Details: compound administered 1.5 hours prior to irradiation
Method: In this model of emesis the onset of retching and vomiting occurs approximately 20 minutes after whole body irradiation (2 Grey.ident.200 Rads). The test compound is administered (e.g. i.p, p.o., i.v., s.c) immediately after irradiation and its effect on emesis determined by comparison with appropriate controls.
Alternatively, the test compounds may be administered before irradiation or before treatment with an emetogen, for example 1.5, 3 or 6 hours before irradiation.

Structure (SMILES) | inhibition of radiation-induced emesis (0.1 mg/kg s.c.) | inhibition of radiation-induced emesis (0.03 mg/kg s.c.)
COc1ccc(-n2cnnn2)cc1CN[C@H]1CCCN[C@H]1c1ccccc1 [Example 2] | inhibited radiation-induced emesis | 
COc1ccc(-n2nnnc2C(F)(F)F)cc1CN[C@H]1CCCN[C@H]1c1ccccc1 [Example 7, [2-Methoxy-5-(5-trifluoromethyl-tetrazol-1-yl)-benzyl]-(2S,3S]-2-phenyl-piperidin-3-yl)-amine dihydrochloride] |  | inhibited radiation-induced emesis
